Source: ChEMBL document CHEMBL2029286, “Trisubstituted imidazoles as Mycobacterium tuberculosis glutamine synthetase inhibitors” (J Med Chem, 2012)
Values after ≈ are worked out from the molar mass of the structure shown.

What was measured:
[1] = Inhibition of Mycobacterium tuberculosis H37Rv glutamine synthetase expressed in Escherichia coli GJ4745 after 1 hr
[2] = test system: Mycobacterium tuberculosis; experiment: Antitubercular activity against Mycobacterium tuberculosis H37Rv ATCC 27294 after 5 days by resazurin microtitre assay; type: functional; conditions: H37Rv ATCC 27294, 120 h
[3] = test system: A549; experiment: Cytotoxicity against human A549 cells after 72 hrs by resazurin reduction assay; type: cell-based; conditions: A549, 72 h
[4] = Selectivity ratio of IC50 for human A549 cells to MIC for Mycobacterium tuberculosis H37Rv ATCC 27294; type: functional

For `COc1ccc2cc(-c3nc(-c4ccccc4)[nH]c3-c3ccncc3)ccc2c1`, which IC50 [1] is on record?
The IC50 was over 25 µM.

For `COc1ccc2cc(-c3nc(C(C)(C)C)[nH]c3-c3ccnc(F)c3)ccc2c1`, which MIC [2] is on record?
The MIC was 64 µg/mL (≈ 170 µM).

And the IC50 [1]?
The IC50 was 1.2 µM.

With `COc1ccc2cc(-c3nc(C(C)(C)C)[nH]c3-c3ncccn3)ccc2c1` as the compound, how does the IC50 [1] read?
The IC50 was over 25 µM.

With `COc1ccc2cc(-c3nc(CO)[nH]c3-c3ccncc3)ccc2c1` as the compound, how does the IC50 [1] read?
The IC50 was over 25 µM.

With `COc1ccc2cc(-c3nc[nH]c3-c3ccncc3)ccc2c1` as the compound, how does the IC50 [1] read?
Its IC50 is over 25 µM.

For `COc1ccc2cc(-c3nc(-c4ccc[nH]4)[nH]c3-c3ccncc3)ccc2c1`, which IC50 [1] is on record?
Its IC50 is over 25 µM.

What does the source list for `COc1ccc2cc(-c3nc(C(C)(C)C)[nH]c3-c3ccnc(N)c3)ccc2c1`?
IC50 [3]: 24.7 µM; Ratio IC50 [4]: 5; MIC [2]: 2 µg/mL (≈ 5.37 µM)

With `CNc1cc(-c2[nH]c(C(C)(C)C)nc2-c2ccc3cc(OC)ccc3c2)ccn1` as the compound, how does the MIC [2] read?
Its MIC is 8 µg/mL (≈ 20.7 µM).

And the IC50 [1]?
The IC50 was 5.2 µM.

Which IC50 [1] does the source give for `COc1ccc2cc(-c3nc(C(C)(C)C)[nH]c3-c3ccnc(N(C)C)c3)ccc2c1` here?
The IC50 was over 25 µM.

Which MIC [2] does the source give for `CC(C)(C)c1nc(-c2cnc3ccccc3c2)c(-c2ccncc2)[nH]1` here?
Its MIC is over 32 µg/mL.

For `COc1ccc2cc(-c3nc(C(C)(C)c4ccccc4)[nH]c3-c3ccncc3)ccc2c1`, which IC50 [1] is on record?
The IC50 was over 25 µM.

For `COc1ccc2cc(-c3nc(C(C)(C)C)[nH]c3-c3cncnc3)ccc2c1`, which IC50 [1] is on record?
The IC50 was over 25 µM.

Which IC50 [1] does the source give for `COc1ccc2cc(-c3nc(C)[nH]c3-c3ccncc3)ccc2c1` here?
The IC50 was over 25 µM.

For `CCc1nc(-c2ccc3cc(OC)ccc3c2)c(-c2ccncc2)[nH]1`, which MIC [2] is on record?
The MIC was over 32 µg/mL.

And the IC50 [1]?
Its IC50 is 2.2 µM.

With `COc1ccc2cc(-c3nc(-c4cccc(O)c4)[nH]c3-c3ccncc3)ccc2c1` as the compound, how does the IC50 [1] read?
The IC50 was over 25 µM.

With `COc1ccc2cc(-c3nc(COCc4ccccc4)[nH]c3-c3ccncc3)ccc2c1` as the compound, how does the IC50 [1] read?
Its IC50 is over 25 µM.

With `COc1ccc2cc(-c3nc(C(C)(C)C)[nH]c3-c3ccccc3)ccc2c1` as the compound, how does the IC50 [1] read?
The IC50 was over 25 µM.

Which MIC [2] does the source give for `COc1ccc2cc(-c3nc(C(C)(C)C)[nH]c3-c3ccncc3)ccc2c1` here?
Its MIC is over 32 µg/mL.

And the IC50 [1]?
Its IC50 is 3.1 µM.
